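The concentration for 50% growth inhibition is given as GI50. At the TGI there is no net growth.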
Experiments:
Assay in all cases: NCI tumour cell line growth inhibition, 384-well format
SK-OV-3 ovarian = test system: SK-OV-3 ovarian
ACHN renal = test system: ACHN renal
HT29 colon = test system: HT29 colon
OVCAR-8 ovarian = test system: OVCAR-8 ovarian
EKVX NSCLC = test system: EKVX NSCLC
HOP-92 NSCLC = test system: HOP-92 NSCLC
HCT-116 colon = test system: HCT-116 colon
UO-31 renal = test system: UO-31 renal
SF-295 CNS = test system: SF-295 CNS
NCI-H522 lung = test system: NCI-H522 lung
PC-3 prostate = test system: PC-3 prostate
SK-MEL-2 melanoma = test system: SK-MEL-2 melanoma
OVCAR-3 ovarian = test system: OVCAR-3 ovarian
COLO 205 colon = test system: COLO 205 colon
MDA-MB-468 breast = test system: MDA-MB-468 breast
KM12 colon = test system: KM12 colon
MDA-MB-231 breast = test system: MDA-MB-231 breast
HS 578T breast = test system: HS 578T breast
SF-539 CNS = test system: SF-539 CNS
786-0 renal = test system: 786-0 renal
UACC-62 melanoma = test system: UACC-62 melanoma
CAKI-1 renal = test system: CAKI-1 renal
M14 melanoma = test system: M14 melanoma
SK-MEL-5 melanoma = test system: SK-MEL-5 melanoma
HL-60(TB) leukemia = test system: HL-60(TB) leukemia
TK-10 renal = test system: TK-10 renal
HOP-62 NSCLC = test system: HOP-62 NSCLC
MALME-3M melanoma = test system: MALME-3M melanoma

Molecule `N#Cc1ncc(N2C(=O)C3(CCC3)N(c3ccc(OC4CCNCC4)nc3)C2=S)cc1C(F)(F)F` has a TGI (SK-OV-3 ovarian) of 32.2 µM, a GI50 (ACHN renal) of 15.3 µM and a TGI (ACHN renal) of 28.7 µM. For the same molecule, the GI50 (HT29 colon) was 2.88 µM, the TGI (HT29 colon) was 8.52 µM and the GI50 (OVCAR-8 ovarian) was 14.5 µM. The TGI (OVCAR-8 ovarian) was 27.7 µM, the GI50 (EKVX NSCLC) was 10.2 µM and the TGI (EKVX NSCLC) was 22 µM. The GI50 (HOP-92 NSCLC) was 12.7 µM, the TGI (HOP-92 NSCLC) was 25.4 µM and the GI50 (HCT-116 colon) was 8.22 µM. It also gave a TGI (HCT-116 colon) of 20.7 µM, a GI50 (UO-31 renal) of 14.7 µM and a TGI (UO-31 renal) of 27.9 µM. It also gave a GI50 (SF-295 CNS) of 18.6 µM, a TGI (SF-295 CNS) of 32.6 µM and a GI50 (NCI-H522 lung) of 17.5 µM. The TGI (NCI-H522 lung) was 31.3 µM, the GI50 (PC-3 prostate) was 14.4 µM and the TGI (PC-3 prostate) was 27.5 µM. It also gave a GI50 (SK-MEL-2 melanoma) of 5.98 µM, a TGI (SK-MEL-2 melanoma) of 17.9 µM and a GI50 (OVCAR-3 ovarian) of 14 µM. It also gave a TGI (OVCAR-3 ovarian) of 27.1 µM, a GI50 (COLO 205 colon) of 15.1 µM and a TGI (COLO 205 colon) of 28.4 µM. It also gave a GI50 (MDA-MB-468 breast) of 10.6 µM, a TGI (MDA-MB-468 breast) of 22.4 µM and a GI50 (KM12 colon) of 17.1 µM. The TGI (KM12 colon) was 30.9 µM, the GI50 (MDA-MB-231 breast) was 16.1 µM and the TGI (MDA-MB-231 breast) was 29.6 µM. The GI50 (HS 578T breast) was 11.5 µM, the TGI (HS 578T breast) was 23.6 µM and the GI50 (SF-539 CNS) was 12.4 µM. It also gave a TGI (SF-539 CNS) of 24.9 µM, a GI50 (786-0 renal) of 12 µM and a TGI (786-0 renal) of 24.4 µM. For the same molecule, the GI50 (UACC-62 melanoma) was 2.03 µM, the TGI (UACC-62 melanoma) was 3.93 µM and the GI50 (CAKI-1 renal) was 5.96 µM. The TGI (CAKI-1 renal) was 18.3 µM, the GI50 (M14 melanoma) was 3 µM and the TGI (M14 melanoma) was 8.44 µM. The GI50 (SK-MEL-5 melanoma) was 11.8 µM, the TGI (SK-MEL-5 melanoma) was 24.1 µM and the GI50 (HL-60(TB) leukemia) was 3.75 µM. For the same molecule, the TGI (HL-60(TB) leukemia) was 15.8 µM, the GI50 (TK-10 renal) was 7.64 µM and the TGI (TK-10 renal) was 20.1 µM. For the same molecule, the GI50 (HOP-62 NSCLC) was 20.9 µM, the TGI (HOP-62 NSCLC) was 35.3 µM and the GI50 (MALME-3M melanoma) was 2.68 µM. For the same molecule, the TGI (MALME-3M melanoma) was 6.23 µM.

Source: PubChem BioAssay (NCI)
